Assay results published in patent US20250313563A1, “GLYCOGEN SYNTHASE KINASE 3 INHIBITORS AND USES THEREOF” (The Broad Institute, Inc., priority 2022, published 2025).
Like-named read-outs stand apart in the source and are kept apart here.

How the values were obtained:
[1] = target: GSK3b (GST-full length GSK3b) (Homo sapiens (Human), UniProt P49841); assay: GSK3b TR-FRET kinase assay; format: biochemical
Outline: (§1)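 In this time-resolved FRET format, kinase reactions contained 200 nM biotinylated, S645-phosphorylated glycogen synthase 631-650 peptide and either isoform-specific ATP (2 μM GSK3b, 4 μM GSK3α) or 1 mM ATP. They were quenched with EDTA after 100 min at ambient temperature. Inhibition curves gave IC50 values.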

[2] = target: GSK3α (GST-full length GSK3α) (Homo sapiens (Human), UniProt P49840); assay: GSK3α TR-FRET kinase assay; format: biochemical
Outline: as §1

[3] = 1 nM GSK3b, 2 μM ATP, 30 minute preincubation, read-out: GSK3-B TR-FRET BIOCHEMICAL (TR-FRET), IC50
[4] = 1 nM GSK3α, 4 μM ATP, 30 minute preincubation, read-out: GSK3-A TR-FRET BIOCHEMICAL (TR-FRET), IC50
[5] = read-out: GSK3-B (TR-FRET 1 mM ATP), GMean, IC50, 1 mM ATP, geometric mean
[6] = read-out: GSK3-A (TR-FRET 1 mM ATP), GMean, IC50, 1 mM ATP, geometric mean
[7] = 1 nM GSK3b, 2 μM ATP, 30 minute preincubation, Table 16, read-out: GSK3-B TR-FRET BIOCHEMICAL (TR-FRET)
[8] = 1 nM GSK3α, 4 μM ATP, 30 minute preincubation, Table 16, read-out: GSK3-A TR-FRET BIOCHEMICAL (TR-FRET)
[9] = 1 nM GSK3b, 2 μM ATP, 30 minute preincubation, geometric mean, read-out: GSK3-B TR-FRET BIOCHEMICAL (TR-FRET), GMean, IC50
[10] = 1 nM GSK3α, 4 μM ATP, 30 minute preincubation, geometric mean, read-out: GSK3-A TR-FRET BIOCHEMICAL (TR-FRET), GMean, IC50

GSK3b (GST-full length GSK3b), sequence (P49841 whole entry, canonical isoform): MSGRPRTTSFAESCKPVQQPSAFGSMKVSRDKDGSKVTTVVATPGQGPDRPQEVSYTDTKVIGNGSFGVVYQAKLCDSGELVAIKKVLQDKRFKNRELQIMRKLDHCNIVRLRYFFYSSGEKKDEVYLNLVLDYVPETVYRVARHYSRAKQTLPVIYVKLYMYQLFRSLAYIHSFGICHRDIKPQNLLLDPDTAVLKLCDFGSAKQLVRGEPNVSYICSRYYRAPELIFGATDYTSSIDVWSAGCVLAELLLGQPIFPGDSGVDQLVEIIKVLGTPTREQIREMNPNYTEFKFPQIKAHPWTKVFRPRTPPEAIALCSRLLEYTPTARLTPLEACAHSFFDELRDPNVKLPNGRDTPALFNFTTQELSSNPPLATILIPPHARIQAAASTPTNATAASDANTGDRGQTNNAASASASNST
GSK3α (GST-full length GSK3α), sequence (P49840 whole entry): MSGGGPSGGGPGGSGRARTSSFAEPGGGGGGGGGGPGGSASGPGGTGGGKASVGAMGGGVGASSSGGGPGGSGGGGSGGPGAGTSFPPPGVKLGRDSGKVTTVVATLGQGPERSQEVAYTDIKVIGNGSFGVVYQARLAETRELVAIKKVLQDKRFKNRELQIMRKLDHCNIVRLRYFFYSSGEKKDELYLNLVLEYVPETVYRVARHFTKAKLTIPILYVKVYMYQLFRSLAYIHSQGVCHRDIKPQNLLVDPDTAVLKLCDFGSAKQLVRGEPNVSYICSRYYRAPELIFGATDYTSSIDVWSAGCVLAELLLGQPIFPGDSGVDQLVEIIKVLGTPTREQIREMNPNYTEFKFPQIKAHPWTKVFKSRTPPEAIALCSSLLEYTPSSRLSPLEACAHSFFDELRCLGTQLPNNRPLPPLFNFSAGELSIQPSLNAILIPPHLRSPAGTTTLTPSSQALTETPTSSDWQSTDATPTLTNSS

| Compound | IC50 [1, 3] [nM] | IC50 [2, 4] [nM] | other results |
| --- | --- | --- | --- |
| CC1(C)CC(=O)C2=C(C1)Nc1n[nH]cc1C21COC2(CN(C(=O)C3(F)CCC3)C2)C1 (stereo not shown) [Compound 947279] | ≤ 100 | ≤ 100 |  |
| CC1(C)CC(=O)C2=C(C1)Nc1n[nH]cc1C21COC2(CN(C(=O)C(F)(F)F)C2)C1 (stereo not shown) [Compound 947280] | ≤ 100 | ≤ 100 |  |
| Cc1ccc(CC(=O)N2CC3(C2)CC2(CO3)C3=C(CC(C)(C)CC3=O)Nc3n[nH]cc32)cc1 (stereo not shown) [Compound 947281] | ≤ 100 | ≤ 100 | IC50 [1, 5]: 100 to 1000 nM; IC50 [2, 6]: 100 to 1000 nM |
| CC1(C)CC(=O)C2=C(C1)Nc1n[nH]cc1C21COC2(CN(C(=O)C3CC(C)(C)C3)C2)C1 (stereo not shown) [Compound 947282] | 100 to 1000 | ≤ 100 |  |
| CC1(C)CC(=O)C2=C(C1)Nc1n[nH]cc1C21COC2(CN(C(=O)c3cccc(F)c3)C2)C1 (stereo not shown) [Compound 947283] | ≤ 100 | ≤ 100 |  |
| Cc1cccc(C(=O)N2CC3(C2)CC2(CO3)C3=C(CC(C)(C)CC3=O)Nc3n[nH]cc32)c1C (stereo not shown) [Compound 947284] | 100 to 1000 | ≤ 100 |  |
| Cc1ccc(C)c(C(=O)N2CC3(C2)CC2(CO3)C3=C(CC(C)(C)CC3=O)Nc3n[nH]cc32)c1 (stereo not shown) [Compound 947285] | 100 to 1000 | ≤ 100 |  |
| Cc1ccc(C(=O)N2CC3(C2)CC2(CO3)C3=C(CC(C)(C)CC3=O)Nc3n[nH]cc32)cc1C (stereo not shown) [Compound 947286] | ≤ 100 | ≤ 100 |  |
| Cc1ccccc1C(=O)N1CC2(C1)CC1(CO2)C2=C(CC(C)(C)CC2=O)Nc2n[nH]cc21 (stereo not shown) [Compound 947287] | 100 to 1000 | ≤ 100 |  |
| CC1(C)CC(=O)C2=C(C1)Nc1n[nH]cc1C21COC2(CN(C(=O)C3CCC3)C2)C1 (stereo not shown) [Compound 947288] | ≤ 100 | ≤ 100 | IC50 [1, 5]: 100 to 1000 nM; IC50 [2, 6]: 100 to 1000 nM |
| CC1(C)CC(=O)C2=C(C1)Nc1n[nH]cc1C21COC2(CN(C(=O)c3ccccc3F)C2)C1 (stereo not shown) [Compound 947289] | ≤ 100 | ≤ 100 |  |
| Cc1ccc(C(=O)N2CC3(C2)CC2(CO3)C3=C(CC(C)(C)CC3=O)Nc3n[nH]cc32)cc1 (stereo not shown) [Compound 947290] | ≤ 100 | ≤ 100 |  |
| CC1(C)CC(=O)C2=C(C1)Nc1n[nH]cc1C21COC2(CN(C(=O)C3CCCCC3)C2)C1 (stereo not shown) [Compound 947291] | 100 to 1000 | ≤ 100 |  |
| CC1(C)CC(=O)C2=C(C1)Nc1n[nH]cc1C21COC2(CN(C(=O)c3ccc(F)cc3)C2)C1 (stereo not shown) [Compound 947292] | ≤ 100 | ≤ 100 |  |
| CC1(C)CC(=O)C2=C(C1)Nc1n[nH]cc1C21COC2(CN(C(=O)CC3CCCC3)C2)C1 (stereo not shown) [Compound 947293] | ≤ 100 | ≤ 100 |  |
| Cc1ccc(C(=O)N2CC3(C2)CC2(CO3)C3=C(CC(C)(C)CC3=O)Nc3n[nH]cc32)c(C)c1 (stereo not shown) [Compound 947294] | 100 to 1000 | ≤ 100 |  |
| Cc1ccccc1CC(=O)N1CC2(C1)CC1(CO2)C2=C(CC(C)(C)CC2=O)Nc2n[nH]cc21 (stereo not shown) [Compound 947295] | ≤ 100 | ≤ 100 |  |
| Cc1cc(C)cc(C(=O)N2CC3(C2)CC2(CO3)C3=C(CC(C)(C)CC3=O)Nc3n[nH]cc32)c1 (stereo not shown) [Compound 947296] | ≤ 100 | ≤ 100 |  |
| CC1(C)CC(=O)C2=C(C1)Nc1n[nH]cc1C21COC2(CN(C(=O)C3CC3)C2)C1 (stereo not shown) [Compound 947297] | ≤ 100 | ≤ 100 |  |
| CC1(C)CC(=O)C2=C(C1)Nc1n[nH]cc1C21COC2(CN(C(=O)CC3CC3)C2)C1 (stereo not shown) [Compound 947298] | ≤ 100 | ≤ 100 |  |
| CC1(C)CC(=O)C2=C(C1)Nc1n[nH]cc1C21COC2(CN(C(=O)CC3CCC3)C2)C1 (stereo not shown) [Compound 947299] | ≤ 100 | ≤ 100 |  |
| CCCC(=O)N1CC2(C1)CC1(CO2)C2=C(CC(C)(C)CC2=O)Nc2n[nH]cc21 (stereo not shown) [Compound 947300] | ≤ 100 | ≤ 100 |  |
| CC(C)(C)CC(=O)N1CC2(C1)CC1(CO2)C2=C(CC(C)(C)CC2=O)Nc2n[nH]cc21 (stereo not shown) [Compound 947301] | 1000 to 5000 | 100 to 1000 |  |
| CC(C)CC(=O)N1CC2(C1)CC1(CO2)C2=C(CC(C)(C)CC2=O)Nc2n[nH]cc21 (stereo not shown) [Compound 947302] | ≤ 100 | ≤ 100 |  |

| Compound | IC50 [1, 3] [nM] | IC50 [2, 4] [nM] | other results |
| --- | --- | --- | --- |
| CC1(C)CC(=O)C2=C(C1)Nc1n[nH]cc1C21COC2(CN(C(=O)C(C)(C)C)C2)C1 (stereo not shown) [Compound 947303] | ≤ 100 | ≤ 100 |  |
| CC(C)C(=O)N1CC2(C1)CC1(CO2)C2=C(CC(C)(C)CC2=O)Nc2n[nH]cc21 (stereo not shown) [Compound 947304] | 100 to 1000 | ≤ 100 |  |
| CC1(C)CC(=O)C2=C(C1)Nc1n[nH]cc1C21COC2(CN(C(=O)CC3CCCCC3)C2)C1 (stereo not shown) [Compound 947305] | ≤ 100 | ≤ 100 |  |
| CC1(C)CC(=O)C2=C(C1)Nc1n[nH]cc1C21COC2(CN(C(=O)Cc3ccccc3)C2)C1 (stereo not shown) [Compound 947306] | ≤ 100 | ≤ 100 | IC50 [1, 5]: ≤ 100 nM; IC50 [2, 6]: ≤ 100 nM |
| CC1(C)CC(=O)C2=C(C1)Nc1n[nH]cc1C21COC2(CN(C(=O)C3(C)CCCC3)C2)C1 (stereo not shown) [Compound 947307] | ≤ 100 | ≤ 100 |  |
| CC1(C)CC(=O)C2=C(C1)Nc1n[nH]cc1C21COC2(CN(C(=O)C3CCCCCC3)C2)C1 (stereo not shown) [Compound 947308] | 100 to 1000 | ≤ 100 |  |
| CC[C@]1(c2cccc(-c3ccncc3C)c2)C2=C(CC(C)(C)CC2=O)Nc2n[nH]c(C(F)(F)F)c21 [Compound 947324] |  |  | IC50 [1, 7]: ≤ 100 nM; IC50 [1, 5]: ≤ 100 nM; IC50 [2, 8]: ≤ 100 nM; IC50 [2, 6]: ≤ 100 nM |
| CC[C@]1(c2cccc(-c3ccncc3F)c2)C2=C(CC(C)(C)CC2=O)Nc2n[nH]c(C(F)(F)F)c21 [Compound 947326] |  |  | IC50 [1, 7]: ≤ 100 nM; IC50 [1, 5]: ≤ 100 nM; IC50 [2, 8]: ≤ 100 nM; IC50 [2, 6]: ≤ 100 nM |
| CCC1(c2cccc(-c3ccnc(C)c3C)c2)C2=C(CC(C)(C)CC2=O)Nc2n[nH]c(C(F)(F)F)c21 (stereo not shown) [Compound 947328] |  |  | IC50 [1, 7]: 100 to 1000 nM; IC50 [2, 8]: 100 to 1000 nM |
| CCC1(c2cccc(-c3ccnc(C)c3C)c2)C2=C(CC(C)(C)CC2=O)Nc2n[nH]c(C(F)(F)F)c21 (stereo not shown) [Compound 947329] |  |  | IC50 [1, 7]: ≤ 100 nM; IC50 [1, 5]: ≤ 100 nM; IC50 [2, 8]: ≤ 100 nM; IC50 [2, 6]: ≤ 100 nM |
| CCC1(c2cccc(C(F)(F)F)c2)C2=C(CCN(c3ccc(OC)cc3)C2=O)Nc2n[nH]cc21 (stereo not shown) [Compound 947332] | 100 to 1000 | ≤ 100 |  |
| CCN(c1cccc(C2(CC)C3=C(CC(C)(C)CC3=O)Nc3n[nH]cc32)c1)c1ncccn1 (stereo not shown) [Compound 947333] |  |  | IC50 [1, 7]: ≤ 100 nM; IC50 [1, 5]: 100 to 1000 nM; IC50 [2, 8]: ≤ 100 nM; IC50 [2, 6]: ≤ 100 nM |
| CCN(c1cccc([C@@]2(CC)C3=C(CC(C)(C)CC3=O)Nc3n[nH]cc32)c1)c1ncccn1 [Compound 947334] |  |  | IC50 [1, 7]: 1000 to 5000 nM; IC50 [2, 8]: 100 to 1000 nM |
| CCC1(c2cccc(-c3cc(C)ncc3C)c2)C2=C(CC(C)(C)CC2=O)Nc2n[nH]c(C(F)(F)F)c21 (stereo not shown) [Compound 947363] |  |  | IC50 [1, 7]: ≤ 100 nM; IC50 [1, 5]: 100 to 1000 nM; IC50 [2, 8]: ≤ 100 nM; IC50 [2, 6]: ≤ 100 nM |
| CCC1(c2cccc(-c3ccnn3C)c2)C2=C(CC(C)(C)CC2=O)Nc2n[nH]c(C(F)(F)F)c21 (stereo not shown) [Compound 947365] |  |  | IC50 [1, 7]: 1000 to 5000 nM; IC50 [2, 8]: 100 to 1000 nM |
| CC[C@@]1(c2cccc(-c3ccnn3C)c2)C2=C(CC(C)(C)CC2=O)Nc2n[nH]c(C(F)(F)F)c21 [Compound 947372] |  |  | IC50 [1, 7]: ≤ 100 nM; IC50 [1, 5]: ≤ 100 nM; IC50 [2, 8]: ≤ 100 nM; IC50 [2, 6]: ≤ 100 nM |
| CC[C@]1(c2cccc(-c3cc(C)nn3C)c2)C2=C(CC(C)(C)CC2=O)Nc2n[nH]c(C(F)(F)F)c21 [Compound 947383] |  |  | IC50 [1, 7]: > 5000 nM; IC50 [2, 8]: 1000 to 5000 nM |
| CCC1(c2cccc(S(C)(=O)=O)c2)C2=C(CC(C)(C)NC2=O)Nc2n[nH]c(C)c21 (stereo not shown) [Compound 947395] | ≤ 100 | ≤ 100 | IC50 [1, 5]: 100 to 1000 nM; IC50 [2, 6]: 100 to 1000 nM |
| CCC1(c2cccc(-c3cnnn3C(C)C)c2)C2=C(CC(C)(C)CC2=O)Nc2n[nH]cc21 (stereo not shown) [Compound 947397] |  |  | IC50 [1, 7]: ≤ 100 nM; IC50 [2, 8]: ≤ 100 nM |
| CCC1(c2cccc(-c3cnnn3C)c2)C2=C(CC(C)(C)CC2=O)Nc2n[nH]cc21 (stereo not shown) [Compound 947398] |  |  | IC50 [1, 7]: ≤ 100 nM; IC50 [2, 8]: ≤ 100 nM |
| CCC1(c2cccc(-c3ccnc(C)c3C)c2)C2=C(CC(C)(C)NC2=O)Nc2n[nH]c(C)c21 (stereo not shown) [Compound 947399] |  |  | IC50 [1, 9]: 1000 to 5000 nM; IC50 [2, 10]: 100 to 1000 nM |
| CCC1(c2cccc(Oc3ncccn3)c2)C2=C(CC(C)(C)CC2=O)Nc2n[nH]cc21 (stereo not shown) [Compound 947400] |  |  | IC50 [1, 7]: ≤ 100 nM; IC50 [2, 8]: ≤ 100 nM |
| CCC1(c2cccc(-c3ccnc(C)c3F)c2)C2=C(CC(C)(C)NC2=O)Nc2n[nH]c(C)c21 (stereo not shown) [Compound 947402] |  |  | IC50 [1, 9]: 100 to 1000 nM; IC50 [2, 10]: ≤ 100 nM |
| CCC1(c2cccc(-c3cnn(C)c3C)c2)C2=C(CC(C)(C)NC2=O)Nc2n[nH]c(C(F)(F)F)c21 (stereo not shown) [Compound 947403] |  |  | IC50 [1, 9]: ≤ 100 nM; IC50 [1, 5]: 100 to 1000 nM; IC50 [2, 10]: ≤ 100 nM; IC50 [2, 6]: ≤ 100 nM |
